Data: patent US11098035B2, “Compounds, compositions, and methods for increasing CFTR activity” (Proteostasis Therapeutics, Inc., priority 2014, dated 2021)
Structures can show the parent of a compound that is named as a salt.

Target: T1, ΔF508-CFTR (Homo sapiens, UniProt P13569, DEL508-508)
T1 construct: Primary lung epithelial cells homozygous for the Cystic Fibrosis-causing ΔF508 mutation were differentiated for a minimum of 4 weeks; endogenous in cells; host or cells: primary human bronchial (lung) epithelial cells (hBE) homozygous for ΔF508, differentiated at an air-liquid interface
Assay: hBE Equivalent Current (Ieq) Assay
Assay type: cell-based
Details: AUC of equivalent chloride current, primary lung epithelial cells homozygous for ΔF508, 24 h treatment
Procedure: Primary lung epithelial cells homozygous for the Cystic Fibrosis-causing ΔF508 mutation were differentiated for a minimum of 4 weeks in an air-liquid interface on Costar 24 well HTS filter plates prior to the equivalent current (Ieq) measurements. Cells were apically mucus-washed for 30 minutes 24 h prior to treatment with compounds. The basolateral media was removed and replaced with media containing the compound of interest diluted to its final concentration from DMSO stocks. Treated cells were incubated at 37° C. and 5% CO2 for 24 hours. At the end of the treatment period, the media was changed to the Ieq experimental solution for 30 minutes before the experiment and plates are maintained in a CO2-free incubator during this period. The plates containing the cells were then placed in pre-warmed heating blocks at 36° C.±0.5 for 15 minutes before measurements are taken. The transepithelial voltage (VT) and conductance (GT) were measured using a custom 24 channel current clamp (TECC-24) with 24 well electrode manifold. The Ieq assay measurements were made following additions with standardized time periods: • 1. The baseline VT and GT values were measured for approximately 20 minutes. • 2. Benzamil was added to block ENaC for 15 minutes. • 3. Forskolin plus VX-770 were added to maximally activate ΔF508-CFTR for 27 minutes. • 4. Bumetanide was added to inhibit the NaK2Cl cotransporter and shut-off secretion of chloride.
The activity data captured was the area under the curve (AUC) for the traces of the equivalent chloride current. The AUC was collected from the time of the forskolin/VX-770 addition until the inhibition by bumetanide addition. Correction in response to compound treatment was scored as the increase in the AUC for compound-treated samples over that of vehicle-treated samples.
The results are shown below in Table 2. ++ indicates activity ≥25% run at 10 uM of VX-809 at 1 uM, + indicates activity 10 to <25% run at 10 uM of VX-809 at 1 uM, **indicates activity ≥200% of VX-809 (1 uM) with compound at 10 uM and VX-809 at 1 uM; * indicates activity 100-200% of VX-809 (1 uM) with compound at 10 uM and VX-809 at 1 uM. ^## indicates activity ≥200% of VX-809 (3 uM) with compound at 10 uM and VX-809 at 3 uM; ^# indicates activity 100-200% of VX-809 (3 uM) with compound at 10 uM and VX-809 at 3 uM.

[1] = compound at 10 uM and VX-809 at 1 uM, activity as % of VX-809 (1 uM)
[2] = compound run at 10 uM, activity relative to VX-809 at 1 uM

T1 sequence (P13569 with tags, fused parts or gaps DEL508-508): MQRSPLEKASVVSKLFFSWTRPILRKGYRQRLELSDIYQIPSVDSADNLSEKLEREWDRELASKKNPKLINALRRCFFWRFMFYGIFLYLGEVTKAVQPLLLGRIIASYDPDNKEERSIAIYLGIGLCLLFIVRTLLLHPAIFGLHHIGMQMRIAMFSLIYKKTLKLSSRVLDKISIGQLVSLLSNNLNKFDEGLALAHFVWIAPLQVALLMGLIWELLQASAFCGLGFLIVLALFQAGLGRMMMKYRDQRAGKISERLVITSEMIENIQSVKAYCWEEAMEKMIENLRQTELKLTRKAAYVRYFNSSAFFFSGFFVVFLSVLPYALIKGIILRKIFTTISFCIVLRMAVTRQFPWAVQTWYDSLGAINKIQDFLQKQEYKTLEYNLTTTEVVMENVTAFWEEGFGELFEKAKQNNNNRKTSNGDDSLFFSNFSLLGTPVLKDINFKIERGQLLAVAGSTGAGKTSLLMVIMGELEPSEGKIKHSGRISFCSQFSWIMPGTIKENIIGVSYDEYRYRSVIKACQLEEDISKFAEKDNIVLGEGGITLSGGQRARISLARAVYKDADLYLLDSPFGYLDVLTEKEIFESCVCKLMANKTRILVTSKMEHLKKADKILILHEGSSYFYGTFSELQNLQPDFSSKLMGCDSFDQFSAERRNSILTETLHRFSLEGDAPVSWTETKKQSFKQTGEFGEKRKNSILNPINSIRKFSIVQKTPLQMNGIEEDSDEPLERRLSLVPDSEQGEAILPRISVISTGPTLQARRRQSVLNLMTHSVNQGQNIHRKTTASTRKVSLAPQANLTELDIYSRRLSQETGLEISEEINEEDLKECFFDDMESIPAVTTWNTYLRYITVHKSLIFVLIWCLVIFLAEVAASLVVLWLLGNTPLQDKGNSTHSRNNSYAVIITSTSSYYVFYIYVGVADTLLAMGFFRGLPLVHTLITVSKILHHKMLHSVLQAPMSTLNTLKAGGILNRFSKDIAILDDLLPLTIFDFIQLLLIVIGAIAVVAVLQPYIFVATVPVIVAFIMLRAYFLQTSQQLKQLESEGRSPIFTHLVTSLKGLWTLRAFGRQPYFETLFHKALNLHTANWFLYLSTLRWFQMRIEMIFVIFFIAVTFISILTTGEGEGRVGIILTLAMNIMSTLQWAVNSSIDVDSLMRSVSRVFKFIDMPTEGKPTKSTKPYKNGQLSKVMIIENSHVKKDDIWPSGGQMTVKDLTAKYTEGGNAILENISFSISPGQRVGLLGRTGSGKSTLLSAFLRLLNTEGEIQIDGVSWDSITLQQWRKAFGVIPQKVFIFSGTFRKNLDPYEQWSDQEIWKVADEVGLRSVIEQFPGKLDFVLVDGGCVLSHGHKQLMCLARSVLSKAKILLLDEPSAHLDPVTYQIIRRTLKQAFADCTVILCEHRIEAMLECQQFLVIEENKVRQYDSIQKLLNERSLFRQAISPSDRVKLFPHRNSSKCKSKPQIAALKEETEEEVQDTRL

Row | Structure (SMILES) | Ieq [1] | Ieq [2]
1 | CC(OC1CCC1)c1nnc([C@H]2C[C@H](NC(=O)c3cc(-c4ccccc4)no3)C2)o1 (relative stereo) [Example 17, N-(trans-3-(5-(1-cyclobutoxyethyl)-1,3,4-oxadiazol-2-yl)cyclobutyl)-3-phenylisoxazole-5-carboxamide] | * (* indicates activity 100-200% of VX-809 (1 uM) with compound at 10 uM and VX-809 at 1 uM) | 
2 | CC(OCC(F)(F)F)c1nnc(C2CC(NC(=O)c3cc(-c4ccccc4)no3)C2)o1 (single isomer, unassigned) [Example 15] | * (* indicates activity 100-200% of VX-809 (1 uM) with compound at 10 uM and VX-809 at 1 uM) | 
3 | COCCNC(=O)c1cc(-c2ccccc2)no1 [Example 1, N-(2-methoxyethyl)-3-phenylisoxazole-5-carboxamide] |  | ++ (++ indicates activity ≥25% run at 10 uM of VX-809 at 1 uM)
4 | O=C(NCC1CCCO1)c1cc(-c2ccccc2)no1 (stereo not drawn) [Example 2, 3-phenyl-N-((tetrahydrofuran-2-yl)methyl)isoxazole-5-carboxamide] |  | ++ (++ indicates activity ≥25% run at 10 uM of VX-809 at 1 uM)
5 | O=C(NCCN1CCOCC1)c1cc(-c2ccccc2)no1 [Example 3, N-(2-morpholinoethyl)-3-phenylisoxazole-5-carboxamide] |  | ++ (++ indicates activity ≥25% run at 10 uM of VX-809 at 1 uM)
6 | O=C(NCCCn1ccnc1)c1cc(-c2ccccc2)no1 [Example 4, N-(3-(1H-imidazol-1-yl)propyl)-3-phenylisoxazole-5-carboxamide] |  | + (+ indicates activity 10 to <25% run at 10 uM of VX-809 at 1 uM)
7 | Cn1nccc1CCCNC(=O)c1cc(-c2ccccc2)no1 [Example 7, N-(3-(1-methyl-1H-pyrazol-5-yl)propyl)-3-phenylisoxazole-5-carboxamide] | * (* indicates activity 100-200% of VX-809 (1 uM) with compound at 10 uM and VX-809 at 1 uM) | ++ (++ indicates activity ≥25% run at 10 uM of VX-809 at 1 uM)
8 | COCCNC(=O)c1cc(-c2ccccc2)co1 [Example 8, N-(2-methoxyethyl)-4-phenylfuran-2-carboxamide] |  | + (+ indicates activity 10 to <25% run at 10 uM of VX-809 at 1 uM)
9 | O=C(NCC1CCCO1)c1cc(-c2ccccc2)co1 (stereo not drawn) [Example 9, 4-phenyl-N-((tetrahydrofuran-2-yl)methyl)furan-2-carboxamide] |  | ++ (++ indicates activity ≥25% run at 10 uM of VX-809 at 1 uM)
10 | O=C(NCCN1CCOCC1)c1cc(-c2ccccc2)co1 [Example 10, N-(2-morpholinoethyl)-4-phenylfuran-2-carboxamide] |  | + (+ indicates activity 10 to <25% run at 10 uM of VX-809 at 1 uM)
11 | O=C(NCCCn1ccnc1)c1cc(-c2ccccc2)co1 [Example 11, N-(3-(1H-imidazol-1-yl)propyl)-4-phenylfuran-2-carboxamide] |  | ++ (++ indicates activity ≥25% run at 10 uM of VX-809 at 1 uM)
12 | O=C(NC1CC1)c1cc(-c2ccccc2)co1 [Example 12, N-cyclopropyl-4-phenylfuran-2-carboxamide] | * (* indicates activity 100-200% of VX-809 (1 uM) with compound at 10 uM and VX-809 at 1 uM) | ++ (++ indicates activity ≥25% run at 10 uM of VX-809 at 1 uM)
13 | CO[C@H](C)c1nnc([C@H]2C[C@H](NC(=O)c3cc(-c4ccccc4)no3)C2)o1 [Example 14, N-(trans-3-(5-((R)-1-methoxyethyl)-1,3,4-oxadiazol-2-yl)cyclobutyl)-3-phenylisoxazole-5-carboxamide] | * (* indicates activity 100-200% of VX-809 (1 uM) with compound at 10 uM and VX-809 at 1 uM) | 
14 | C[C@@H](OCC1CN(C)C1)c1nnc([C@H]2C[C@H](NC(=O)c3cc(-c4ccccc4)no3)C2)o1 [Example 20, N-(trans-3-(5-((R)-1-((1-methylazetidin-3-yl)methoxy)ethyl)-1,3,4-oxadiazol-2-yl)cyclobutyl)-3-phenylisoxazole-5-carboxamide] | * (* indicates activity 100-200% of VX-809 (1 uM) with compound at 10 uM and VX-809 at 1 uM) | 
15 | CN1CC(c2nnc([C@H]3C[C@H](NC(=O)c4cc(-c5ccccc5)no4)C3)o2)C1 [Example 21, N-(trans-3-(5-(1-methylazetidin-3-yl)-1,3,4-oxadiazol-2-yl)cyclobutyl)-3-phenylisoxazole-5-carboxamide trifluoroacetate] | * (* indicates activity 100-200% of VX-809 (1 uM) with compound at 10 uM and VX-809 at 1 uM) | 
16 | O=C(NC1CC(c2nnc(C3COC3)o2)C1)c1cc(-c2ccccc2)no1 (stereo not drawn) [Example 22, N-trans-3-(5-(oxetan-3-yl)-1,3,4-oxadiazol-2-yl)cyclobutyl)-3-phenylisoxazole-5-carboxamide] | * (* indicates activity 100-200% of VX-809 (1 uM) with compound at 10 uM and VX-809 at 1 uM) | 
17 | O=C(N[C@H]1C[C@H](c2nnc(C3CS(=O)(=O)C3)o2)C1)c1cc(-c2ccccc2)no1 [Example 23, N-(trans-3-(5-(1,1-dioxidothietan-3-yl)-1,3,4-oxadiazol-2-yl)cyclobutyl)-3-phenylisoxazole-5-carboxamide] | * (* indicates activity 100-200% of VX-809 (1 uM) with compound at 10 uM and VX-809 at 1 uM) | 
18 | CN1CCC(N2CC(c3nnc(C4CC(NC(=O)c5cc(-c6ccccc6)no5)C4)o3)C2)CC1 (stereo not drawn) [Example 24, N-cis-(3-(5-(1-(1-methylpiperidin-4-yl)azetidin-3-yl)-1,3,4-oxadiazol-2-yl)cyclobutyl)-3-phenylisoxazole-5-carboxamide] | * (* indicates activity 100-200% of VX-809 (1 uM) with compound at 10 uM and VX-809 at 1 uM) | 
19 | O=C(N[C@H]1C[C@H](c2nnc(C3CN(CC4CCC4)C3)o2)C1)c1cc(-c2ccccc2)no1 [Example 27, N-(trans-3-(5-(1-(cyclobutylmethyl)azetidin-3-yl)-1,3,4-oxadiazol-2-yl)cyclobutyl)-3-phenylisoxazole-5-carboxamide] | * (* indicates activity 100-200% of VX-809 (1 uM) with compound at 10 uM and VX-809 at 1 uM) | 
20 | O=C(N[C@H]1C[C@@H](n2nncc2CO)C1)c1cc(-c2ccccc2)no1 [Example 28, N-(cis-3-(5-(hydroxymethyl)-1H-1,2,3-triazol-1-yl)cyclobutyl)-3-phenylisoxazole-5-carboxamide] | ** (**indicates activity ≥200% of VX-809 (1 uM) with compound at 10 uM and VX-809 at 1 uM) | 
21 | O=C(N[C@H]1C[C@@H](n2cc(CO)nn2)C1)c1cc(-c2ccccc2)no1 [Example 29, N-(cis-3-(4-(hydroxymethyl)-1H-1,2,3-triazol-1-yl)cyclobutyl)-3-phenylisoxazole-5-carboxamide] | ** (**indicates activity ≥200% of VX-809 (1 uM) with compound at 10 uM and VX-809 at 1 uM) | 
22 | C[C@@H](O)c1nnc([C@H]2C[C@H](NC(=O)c3cc(-c4ccc(F)cc4)no3)C2)o1 [Example 36, 3-(4-fluorophenyl)-N-(trans-3-(5-((R)-1-hydroxyethyl)-1,3,4-oxadiazol-2-yl)cyclobutyl)isoxazole-5-carboxamide] | * (* indicates activity 100-200% of VX-809 (1 uM) with compound at 10 uM and VX-809 at 1 uM) | 
23 | C[C@@H](O)c1nnc(CC2CC(NC(=O)c3cc(-c4ccccc4)no3)C2)o1 (stereo partly drawn) [Example 37, N-((1S,3s)-3-((5-((R)-1-hydroxyethyl)-1,3,4-oxadiazol-2-yl)methyl)cyclobutyl)-3-phenylisoxazole-5-carboxamide] | ** (**indicates activity ≥200% of VX-809 (1 uM) with compound at 10 uM and VX-809 at 1 uM) | 
24 | C[C@@H](O)c1nnc(CC2CC(NC(=O)c3cc(-c4ccc(F)cc4)no3)C2)o1 (stereo partly drawn) [Example 40, 3-(4-Fluorophenyl)-N-[(1r,3r)-3-([5-[(1R)-1-hydroxyethyl]-1,3,4-oxadiazol-2-yl]methyl)cyclobutyl]-1,2-oxazole-5-carboxamide] | ** (**indicates activity ≥200% of VX-809 (1 uM) with compound at 10 uM and VX-809 at 1 uM) | 
25 | C[C@@H](O)c1nnc(C[C@H]2C[C@@H](NC(=O)c3cc(-c4ccccc4)no3)C2)s1 [Example 41, 3-Phenyl-N-[(1s,3s)-3-([5-[(1R)-1-hydroxyethyl]-1,3,4-thiadiazol-2-yl]methyl)cyclobutyl]-1,2-oxazole-5-carboxamide] | ** (**indicates activity ≥200% of VX-809 (1 uM) with compound at 10 uM and VX-809 at 1 uM) | 
